Counter-ions that a name gives are not always drawn.
Assays:
[1] = molecular target: T1, recombinant human Meningioma Expressed Antigen 5 (MGEA5), also referred to as O-GlcNAcase (OGA) (Homo sapiens, UniProt O60502); experiment: OGA biochemical assay: inhibition of FM-GlcNAc hydrolysis, fluorescence; protocol A (10 nM OGA, 1 h) or protocol B (2 nM OGA, 6 h); details: Enzymatic protocol B (2 nM OGA, 6 h); for IC50: read-out: Enzymatic hOGA, pIC50 (converted)
T1 construct: Full length OGA enzyme was purchased at OriGene (cat # TP322411); purchased OriGene TP322411
T1 sequence (O60502 1-916): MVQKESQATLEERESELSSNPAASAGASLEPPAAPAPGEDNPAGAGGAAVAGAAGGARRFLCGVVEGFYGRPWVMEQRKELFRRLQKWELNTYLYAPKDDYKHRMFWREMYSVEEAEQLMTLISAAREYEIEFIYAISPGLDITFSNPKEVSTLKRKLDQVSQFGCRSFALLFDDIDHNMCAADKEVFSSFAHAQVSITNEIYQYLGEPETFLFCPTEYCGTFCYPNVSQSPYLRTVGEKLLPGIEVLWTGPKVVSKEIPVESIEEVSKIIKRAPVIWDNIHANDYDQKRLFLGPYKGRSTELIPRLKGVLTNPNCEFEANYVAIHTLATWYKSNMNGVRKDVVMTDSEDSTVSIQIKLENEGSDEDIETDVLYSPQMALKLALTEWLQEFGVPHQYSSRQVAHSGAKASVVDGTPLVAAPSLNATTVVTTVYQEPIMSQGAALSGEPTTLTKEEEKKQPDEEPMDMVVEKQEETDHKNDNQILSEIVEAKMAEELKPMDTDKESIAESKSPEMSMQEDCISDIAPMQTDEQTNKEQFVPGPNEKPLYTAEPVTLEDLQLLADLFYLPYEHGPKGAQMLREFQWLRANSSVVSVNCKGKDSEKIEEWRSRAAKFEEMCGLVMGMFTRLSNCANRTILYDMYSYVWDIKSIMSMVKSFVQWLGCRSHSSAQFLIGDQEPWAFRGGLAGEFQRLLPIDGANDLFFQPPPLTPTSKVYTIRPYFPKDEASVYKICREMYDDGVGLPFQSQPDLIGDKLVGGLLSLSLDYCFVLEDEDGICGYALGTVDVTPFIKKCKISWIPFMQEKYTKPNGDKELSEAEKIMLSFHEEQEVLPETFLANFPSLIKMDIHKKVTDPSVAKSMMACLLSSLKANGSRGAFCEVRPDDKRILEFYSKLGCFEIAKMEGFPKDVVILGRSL
How it was run: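 Full-length human OGA in 200 mM citrate/phosphate pH 7.2 with 0.005% Tween-20, compound pre-incubated 60 min at RT, then 100 uM FM-GlcNAc (final); 10 nM enzyme for 1 h or 2 nM for 6 h at RT. Stopped with pH 11.0 carbonate; fluorescein read at ex 485/em 538 nm. IC50 and Hill coefficient from curve fit.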

[2] = test system: OGA in HEK293 cells inducible for P301L mutant human Tau (isoform 2N4R); experiment: OGA cellular assay: immunocytochemical detection of O-GlcNAcylated proteins (CTD110.6 antibody) after 6 h incubation; format: cell-based; details: for Emax / EC50: Homo sapiens, HEK293, 6 h; for Emax / Cellular Emax (%): maximum = Thiamet G 200 uM; for EC50: read-out: Cellular hOGA, pEC50 (converted)
How it was run: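 Low-glucose medium, 6 h compound exposure at 0.2% DMSO; cells PFA-fixed and O-GlcNAc ICC signal imaged at 488 nm (9 fields/well), Hoechst nuclei counted for toxicity. Thiamet G 200 uM on each plate as maximum; IC50 from non-linear regression.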

Row | SMILES | melting point | Emax [1] | IC50 [1] | Emax [2] | EC50 [2] | Enzymatic Emax (%) [1] | Enzymatic hOGA; pIC50 [1] | Cellular hOGA; pEC50 [2] | Cellular Emax (%) [2]
1 | Cc1cc(CC2CCCN(C(C)c3ccc4c(c3)OCCO4)C2)cc(C)n1 (racemic) (as salt: HCl) [compound 142] | 256.05 °C |  |  |  |  |  |  |  | 
2 | CC(=O)Nc1ncc(CN2CCC(OCc3cc(C)nc(C)c3)C2)s1 (racemic) [Product 81] | 118.26 °C |  |  |  |  |  |  |  | 
3 | CC(=O)Nc1ncc(CN2CCC(COc3cc(C)nc(C)c3)C2)s1 (racemic) [Product 89] | 125.9 °C |  |  |  |  |  |  |  | 
4 | CC(=O)Nc1ncc(CN2CCC(Cc3cncnc3C)C2)s1 (racemic) [Product 103] | 147.16 °C |  |  |  |  |  |  |  | 
5 | Cc1cc(CC2CCCN(C(C)c3ccc4sc(C)nc4c3)C2)cc(C)n1 (single isomer, unassigned) (as salt: HCl) [compound 118] | 270.1 °C |  |  |  |  |  |  |  | 
6 | CC(=O)Nc1ncc(CN2CCC(Cc3cc(F)ncc3C)C2)s1 (centres unmarked) [Product 106] | 140.36 °C |  |  |  |  |  |  |  | 
7 | CC(=O)Nc1ncc(CN2CCC(Cc3ccc(C)c(C)n3)C2)s1 (centres unmarked) [compound 38] | 107.53 °C | 99.7% | 19.5 nM | 90.3% | 39.8 nM |  |  |  | 
8 | CC(=O)Nc1ncc(CN2CCC(Cc3ncccc3F)C2)s1 (centres unmarked) [compound 39] | 150.08 °C | 99.2% | 60.3 nM |  |  |  |  |  | 
9 | CC(=O)Nc1ncc(CN2CCC(Cc3nccc(C)c3F)C2)s1 (centres unmarked) [compound 43] | 129.25 °C | 102% | 9.12 nM | 87% | 79.4 nM |  |  |  | 
10 | CC(=O)Nc1ncc(CN2CCC(OCc3cc(C)nc(C)c3)C2)s1 (centres unmarked) [compound 81] |  | 102% | 72.4 nM | 51.7% | 501 nM |  |  |  | 
11 | CC(=O)Nc1ncc(CN2CC[C@H](Cc3ccc(C)nc3C#N)C2)s1 [compound 84] |  |  |  |  |  | 102.6% | 8.30 | 7.43 | 81.9%
12 | CC(=O)Nc1ncc(CN2CC[C@H](Cc3cc(C)cc(C)n3)C2)s1 [compound 85] |  | 101% | 8.71 nM | 86.9% | 46.8 nM |  |  |  | 
13 | CC(=O)Nc1ncc(CN2CCC(Cc3cnc(C)c(C)n3)C2)s1 (centres unmarked) [compound 86] |  |  |  |  |  | 101.3% | 8.49 | 7.4 | 83.5%
14 | CC(=O)Nc1ncc(CN2CCC(COc3cc(C)nc(C)c3)C2)s1 (centres unmarked) [compound 89] |  | 100% | 26.3 nM | 72.4% | 81.3 nM |  |  |  | 
15 | CC(=O)Nc1ncc(CN2CCC(Cc3ccc(C)nn3)C2)s1 (centres unmarked) [compound 90] |  |  |  |  |  | 100% | 7.77 | 6.83 | 73.7%
16 | CC(=O)Nc1ncc(CN2CCC(Cc3cnc(C#N)cn3)C2)s1 (centres unmarked) [compound 91] |  |  |  |  |  | 102% | 8.21 | 7.28 | 102.1%
17 | CC(=O)Nc1ncc(CN2CC[C@H](Cc3cnc(C(=O)NC(C)(C)C)cn3)C2)s1 [compound 92] |  | 99.7% | 22.4 nM | 92.6% | 81.3 nM |  |  |  | 
18 | CC(=O)Nc1ncc(CN2CCC(Cc3cncnc3C)C2)s1 (centres unmarked) [compound 103] |  | 103% | 46.8 nM | 86.9% | 132 nM |  |  |  | 
19 | CC(=O)Nc1ncc(CN2CCC(Cc3ncc(F)cc3C)C2)s1 (centres unmarked) [compound 104] |  | 102% | 20 nM | 89.4% | 58.9 nM |  |  |  | 
20 | CC(=O)Nc1ncc(CN2CCC(Cc3cnc(C(N)=O)cn3)C2)s1 (centres unmarked) [compound 105] |  | 102% | 19.5 nM | 93.3% | 100 nM |  |  |  | 
21 | CC(=O)Nc1ncc(CN2CCC(Cc3cc(F)ncc3C)C2)s1 (centres unmarked) [compound 106] |  | 101% | 21.4 nM | 86.9% | 41.7 nM |  |  |  | 

Row | SMILES | melting point | Emax [1] | IC50 [1] | Emax [2] | EC50 [2] | Enzymatic Emax (%) [1] | Enzymatic hOGA; pIC50 [1] | Cellular hOGA; pEC50 [2] | Cellular Emax (%) [2]
22 | CC(=O)Nc1ncc(CN2CCC(Cc3ccc(F)c(C)n3)C2)s1 (centres unmarked) [compound 107] | 173.68 °C | 102% | 40.7 nM | 82% | 138 nM |  |  |  | 
23 | COc1nc(C)ccc1CC1CCN(Cc2cnc(NC(C)=O)s2)C1 (centres unmarked) [compound 109] |  | 103% | 18.6 nM | 115% | 52.5 nM |  |  |  | 
24 | CC(=O)Nc1ncc(CN2CC[C@H](Cc3cc(C)nc(F)c3)C2)s1 [compound 110] |  | 103% | 20 nM | 91.3% | 24.5 nM |  |  |  | 
25 | CC(=O)Nc1ncc(CN2CC[C@@H](Cc3cc(C)nc(F)c3)C2)s1 [compound 111] |  | 103% | 30.9 nM | 97.4% | 52.5 nM |  |  |  | 
26 | CC(=O)Nc1ncc(CN2CC[C@H](Cc3cc(C)nc(C)c3)C2)s1 [compound 112] |  | 102% | 4.57 nM | 118% | 17.8 nM |  |  |  | 
27 | CC(=O)Nc1ncc(CN2CC[C@@H](Cc3cc(C)nc(C)c3)C2)s1 [compound 113] |  | 102% | 4.47 nM | 105% | 11.2 nM |  |  |  | 
28 | Cc1cc([C@H]2CCCN([C@@H](C)c3ccc4sc(C)nc4c3)C2)cc(C)n1 [compound 117] |  | 102% | 12 nM | 99.5% | 97.7 nM |  |  |  | 
29 | CC(=O)Nc1ncc(CN2CCC[C@H](Cc3ncc(F)cc3F)C2)s1 [compound 121] |  | 98.3% | 4.27 nM | 110% | 28.8 nM |  |  |  | 
30 | CC(=O)Nc1ncc(CN2CCC[C@H](Cc3cc(F)ncc3C)C2)s1 [compound 122] |  | 100% | 2.51 nM | 97.2% | 4.17 nM |  |  |  | 
31 | CC(=O)Nc1ncc(CN2CCC[C@H](Cc3cc(C)nc(F)c3)C2)s1 [compound 123] |  | 99.2% | 2.75 nM | 90.5% | 9.77 nM |  |  |  | 
32 | COc1nc(C)ccc1C[C@H]1CCCN(Cc2cnc(NC(C)=O)s2)C1 [compound 126] |  | 100% | 1.38 nM | 97.5% | 11.5 nM |  |  |  | 
33 | CC(=O)Nc1ncc(CN2CCC[C@H](Cc3cncc(C)n3)C2)s1 [compound 127] |  | 102% | 2.88 nM | 88.5% | 27.5 nM |  |  |  | 
34 | CC(=O)Nc1ncc(CN2CCC[C@H](Cc3nc(C)cnc3C)C2)s1 [compound 128] |  | 102% | 1.82 nM | 93.2% | 39.8 nM |  |  |  | 
35 | CC(=O)Nc1ncc(CN2CCC[C@H](Cc3ccc(F)c(C)n3)C2)s1 [compound 129] |  | 102% | 2.82 nM | 101% | 20 nM |  |  |  | 
36 | CC(=O)Nc1ncc(CN2CCCC(COc3cc(C)nc(C)c3)C2)o1 (centres unmarked) [compound 138] |  | 102% | 53.7 nM | 74.2% | 437 nM |  |  |  | 
37 | COc1cc(C[C@H]2CCN(Cc3cnc(NC(C)=O)s3)C2)cc(C(F)(F)F)n1 [compound 143] |  | 102% | 21.4 nM | 86.2% | 60.3 nM |  |  |  | 
38 | Cc1cc(C2CCCN(C(C)c3ccc4nccnc4c3)C2)cc(C(F)(F)F)n1 (centres unmarked) [compound 144] |  | 101% | 41.7 nM | 42.8% | > 1000 nM |  |  |  | 
39 | Cc1cc(C[C@H]2CCCN(Cc3ccc4sc(C)nc4c3)C2)cc(C)n1 [compound 145] |  | 101% | 126 nM | 39.4% | > 1000 nM |  |  |  | 
40 | Cc1cc(C[C@H]2CCCN(Cc3ccc4scnc4c3)C2)cc(C)n1 [compound 147] |  | 99% | 282 nM | 33.2% | > 1000 nM |  |  |  | 
41 | Cc1cc(C[C@H]2CCCN(Cc3ccc4c(c3)OCCO4)C2)cc(C)n1 [compound 152] |  | 102% | 102 nM | 41.9% | > 1000 nM |  |  |  | 
42 | CC(=O)Nc1ncc(CN2CCC[C@@H](COc3cc(C)nc(C)c3)C2)s1 [compound 154] |  | 103% | 15.1 nM | 116% | 38 nM |  |  |  | 

Source: patent US20200079766A1, “MONOCYCLIC OGA INHIBITOR COMPOUNDS” (Janssen Pharmaceutica NV, priority 2016, published 2020)
